Test system: DYT1 knockin (Tor1a^delGAG/+) murine embryonic fibroblasts (MEFs)
Experiment: Untargeted LC/MS/MS proteomics of EVs from DYT1 MEFs exposed 24 hours to drug, compared with untreated DYT1 (Het) MEFs
Assay type: cell-based, mouse
Protocol: Methods for isolation and purification of exosomes and extracellular vesicles (EV) were extensively reviewed. Experiments were performed to arrive at a robust and reproducible protocol. The protocol used herein is that set forth in Théry et al, 2006, which is incorporated by reference for it teaching of this protocol. This protocol involves depleting serum-derived EVs from cell culture media by overnight ultracentrifugation and exchanging media for 1% FBS EV-depleted media. Media is then collected from cells following a 24-hour conditioning period and EVs are isolated by 18-hour ultracentrifugation at 100,000 g (FIG. 1A).
EVs were isolated from media of cultured murine embryonic fibroblasts (MEFs) prepared in-house according to protocols described by Xu 2005 from DYT1 knockin mice (Tor1a^delGAG/+) (Goodchild R E, et al. (2005) Neuron. 48:923-932) and littermate wild-type (WT) controls. The cultured MEFs from the DYT1 mice were exposed for 24 hours to Ritonavir (RTV) while the MEFs from WT mice were exposed to vehicle, ISRIB, or Salubrinal (SAL). The EVs isolated from these WT cells and DYT1 were characterized by untargeted proteomics and RNA-seq to identify differentially expressed proteins and RNAs as candidate biomarkers. Experimenter and Proteomics core staff were blinded to genotype of cell cultures throughout preparation and analysis phases.
Samples were first normalized to 20 μg and spiked with undigested casein at a total of 40 fmol/μg, 80 fmol/μg, or 160 fmol/μg, then reduced with 10 mM dithiolthreitol for 30 minute at 80° C. and alkylated with 20 mM iodoacetamide for 30 minutes at room temperature. Next, the samples were supplemented with a final concentration of 1.2% phosphoric acid and 741 μL of S-Trap (Protifi) binding buffer (90% MeOH/100 mM […]). Proteins were trapped on the S-Trap, digested using 20 ng/μL sequencing grade trypsin (Promega) for 1 hour at 47° C., and eluted using 50 mM TEAB, followed by 0.2% FA, and lastly using 50% CAN/0.2% FA. All samples were then lyophilized to dryness and resuspended in 40 μL 1% TFA/2% acetonitrile containing 12.5 fmol/μL yeast alcohol dehydrogenase (ADH_YEAST). A QC Pool was created from 3 uL of each sample. All QC Pools were run periodically throughout the acquisition period.
Quantitative LC/MS/MS was performed on 2 μL of each sample, using a nanoAcquity UPLC system (Waters Corp) coupled to a Thermo Orbitrap Fusion Lumos high resolution accurate mass tandem mass spectrometer (Thermo) via a nanoelectrospray ionization source. Briefly, the sample was first trapped on a Symmetry C18 20 mm×180 μm trapping column (5 μL/min at 99.9/0.1 v/v water/acetonitrile), after which the analytical separation was performed using a 1.8 μm Acquity HSS T3 C18 75 μm×250 mm column (Waters Corp.) with a 90 minute linear gradient of 5% to 30% acetonitrile with 0.1% formic acid at a flow rate of 400 nanoliters/minute (nL/min) with a column temperature of 55° C. Data collection on the Fusion Lumos mass spectrometer was performed in a data-dependent acquisition (DDA) mode of acquisition with a r=120,000 (@ m/z 200) full MS scan from m/z 375-1500 with a target AGC value of 2e5 ions. MS/MS scans were acquired at Rapid scan rate (Ion Trap) with an AGC target of 5e3 ions and a max injection time of 100 ms. The total cycle time for MS and MS/MS scans was 2 seconds. A 20 second dynamic exclusion was employed to increase depth of coverage. The total analysis cycle time for each sample injection was approximately 2 hours.

CC(C)c1nc(CN(C)C(=O)N[C@H](C(=O)N[C@@H](Cc2ccccc2)C[C@H](O)[C@H](Cc2ccccc2)NC(=O)OCc2cncs2)C(C)C)cs1 [RTV, Ritonavir]
direction of modulated EV protein expression (DYT1 cells, 363 proteins of the DYT1 Genotype Dependent Differences subset): modulated expression in a therapeutic direction | Abs Z Score Sum (Geno + RTV) (EV protein A2AVA0 Sushi, von Willebrand factor type A, EGF and pentraxin domain-containing protein 1): 2.64 | Abs Z Score Sum (Geno + RTV) (EV protein Akr1b1 (P45376)): 8.44 | Abs Z Score Sum (Geno + RTV) (EV protein Aldh2 (P47738)): 25.29 | RTV Direction Opposite dE? (EV protein Aldh2 (P47738)): yes | Abs Z Score Sum (Geno + RTV) (EV protein C1qtnf3 (Q9..)): 6.95 | Abs Z Score Sum (Geno + RTV) (EV protein Cnn3 (Q9DAW9)): 13.28 | RTV Direction Opposite dE? (EV protein Cnn3 (Q9DAW9)): yes | Abs Z Score Sum (Geno + RTV) (EV protein Cnot1 (Q6ZQ08)): 12.30 | RTV Direction Opposite dE? (EV protein Cnot1 (Q6ZQ08)): yes | Abs Z Score Sum (Geno + RTV) (EV protein Col5A1 Q88207): 5.55 | Abs Z Score Sum (Geno + RTV) (EV protein Coph2 Q55029): 9.40 | Abs Z Score Sum (Geno + RTV) (EV protein Cryab (P23927)): 5.18 | RTV Direction Opposite dE? (EV protein Cryab (P23927)): yes | Abs Z Score Sum (Geno + RTV) (EV protein Cxadr (P97792)): 16.73 | RTV Direction Opposite dE? (EV protein Cxadr (P97792)): yes | RTV Direction Opposite dE? (EV protein D3YXG0): yes | RTV Direction Opposite dE? (EV protein Dars (Q922B2)): yes | RTV Direction Opposite dE? (EV protein Dctn2 (Q99KJ8)): yes | Abs Z Score Sum (Geno + RTV) (EV protein Ddx3x (Q62167)): 5.09 | Abs Z Score Sum (Geno + RTV) (EV protein Ddx5 (Q61656)): 8.05 | Abs Z Score Sum (Geno + RTV) (EV protein Ddx39b (Q9Z1N5)): 16.28 | RTV Direction Opposite dE? (EV protein Ddx39b (Q9Z1N5)): yes | Abs Z Score Sum (Geno + RTV) (EV protein Dhx9 (Q70133)): 9.00 | Abs Z Score Sum (Geno + RTV) (EV protein Dhx15 (Q35286)): 7.27 | Abs Z Score Sum (Geno + RTV) (EV protein Efemp1 Q8BPB5): 8.34 | RTV Direction Opposite dE? (EV protein Esyt1 (Q3U7R1)): yes | Abs Z Score Sum (Geno + RTV) (EV protein Exoc4 (Q35382)): 14.59 | RTV Direction Opposite dE? (EV protein Exoc4 (Q35382)): yes | Abs Z Score Sum (Geno + RTV) (EV protein Extended synaptotagmin-1 (Q3..)): 4.61 | Abs Z Score Sum (Geno + RTV) (EV protein Fth1 P09528): 12.58 | Abs Z Score Sum (Geno + RTV) (EV protein Fus (P56959)): 14.88 | RTV Direction Opposite dE? (EV protein Fus (P56959)): yes | Abs Z Score Sum (Geno + RTV) (EV protein Gsto1 (Q09131)): 8.09 | RTV Direction Opposite dE? (EV protein Gsto1 (Q09131)): yes | Abs Z Score Sum (Geno + RTV) (EV protein Hmen1 D3YXG0): 11.51 | RTV Direction Opposite dE? (EV protein Hnrnpf (Q9Z2X1)): yes | RTV Direction Opposite dE? (EV protein Hnrnph1 (Q35737)): yes | Abs Z Score Sum (Geno + RTV) (EV protein Hnrnpl Q8R081): 9.12 | Abs Z Score Sum (Geno + RTV) (EV protein Idh2 (P54071)): 26.73 | Abs Z Score Sum (Geno + RTV) (EV protein Igf1r Q60751): 4.86 | RTV Direction Opposite dE? (EV protein Impa1 (Q55023)): yes | Abs Z Score Sum (Geno + RTV) (EV protein Ipo7 (Q9EPL8)): 5.25 | RTV Direction Opposite dE? (EV protein Ipo7 (Q9EPL8)): yes | Abs Z Score Sum (Geno + RTV) (EV protein Ipo11 (Q8K2V6)): 13.53 | RTV Direction Opposite dE? (EV protein Ipo11 (Q8K2V6)): yes | Abs Z Score Sum (Geno + RTV) (EV protein Itgb3 (Q54890)): 4.87 | RTV Direction Opposite dE? (EV protein Itgb3 (Q54890)): yes | Abs Z Score Sum (Geno + RTV) (EV protein Itm2b Q89051): 17.16 | Abs Z Score Sum (Geno + RTV) (EV protein Itpa (Q9D892)): 23.68 | RTV Direction Opposite dE? (EV protein Itpa (Q9D892)): yes | Abs Z Score Sum (Geno + RTV) (EV protein Kpna4 (Q35343)): 14.28 | RTV Direction Opposite dE? (EV protein Kpna4 (Q35343)): yes | Abs Z Score Sum (Geno + RTV) (EV protein Lipg (Q9WVG5)): 11.27 | Abs Z Score Sum (Geno + RTV) (EV protein Mdk (P12025)): 7.88 | RTV Direction Opposite dE? (EV protein Mdk (P12025)): yes | Abs Z Score Sum (Geno + RTV) (EV protein Mem2 P97310): 7.66 | Abs Z Score Sum (Geno + RTV) (EV protein Mtap (Q9CQ65)): 8.12 | RTV Direction Opposite dE? (EV protein Myo18a): yes | Abs Z Score Sum (Geno + RTV) (EV protein Myo18a (Q9JM..)): 7.78 | Abs Z Score Sum (Geno + RTV) (EV protein Nap114 Q78ZA7): 50.77 | Abs Z Score Sum (Geno + RTV) (EV protein Nrbp1 (Q99..)): 9.54 | RTV Direction Opposite dE? (EV protein Nrbp1 (Q99J45)): yes | Abs Z Score Sum (Geno + RTV) (EV protein Otub1 (Q7TQ..)): 11.30 | RTV Direction Opposite dE? (EV protein P09528, Ferritin heavy chain): yes | RTV Direction Opposite dE? (EV protein P27612, Phospholipase A-2-activating protein): yes | Abs Z Score Sum (Geno + RTV) (EV protein P48678 Prelamin-A C): 7.44 | RTV Direction Opposite dE? (EV protein P61089, Ubiquitin-conjugating enzyme): yes | Abs Z Score Sum (Geno + RTV) (EV protein Pdia4 (P08003)): 5.92 | RTV Direction Opposite dE? (EV protein Pdia4 (P08003)): yes | Abs Z Score Sum (Geno + RTV) (EV protein Penk (P22005)): 4.31 | RTV Direction Opposite dE? (EV protein Penk (P22005)): yes | Abs Z Score Sum (Geno + RTV) (EV protein Plaa P27612): 12.45 | Abs Z Score Sum (Geno + RTV) (EV protein Pld3 (Q35405)): 7.47 | RTV Direction Opposite dE? (EV protein Pld3 (Q35405)): yes | Abs Z Score Sum (Geno + RTV) (EV protein Prep Q9QUR6): 8.56 | Abs Z Score Sum (Geno + RTV) (EV protein Prpf8 (Q99PV0)): 11.34 | Abs Z Score Sum (Geno + RTV) (EV protein Psmd1 (Q3TXS7)): 7.84 | Abs Z Score Sum (Geno + RTV) (EV protein Pura (P42669)): 6.04 | RTV Direction Opposite dE? (EV protein Pura (P42669)): yes | RTV Direction Opposite dE? (EV protein Q6X893, Choline transporter-like protein 1): yes | RTV Direction Opposite dE? (EV protein Q8BL97, Serine arginine-rich splicing factor 7): yes | RTV Direction Opposite dE? (EV protein Q8C878, NEDD8-activating enzyme E1 catalytic subunit): yes | Abs Z Score Sum (Geno + RTV) (EV protein Q8C878 NEDD8-activating enzyme .. subunit): 14.97 | Abs Z Score Sum (Geno + RTV) (EV protein Q8CG19 Latent-transforming GF β-binding protein 1): 6.03 | Abs Z Score Sum (Geno + RTV) (EV protein Q9D1M4 (Eukaryotic translation .. epsilon-1)): 20.67 | RTV Direction Opposite dE? (EV protein Q9D1M4, Eukaryotic translation EF1 epsilon-1): yes | RTV Direction Opposite dE? (EV protein Q9FS30, Complement C1q tumor necrosis factor-related protein 3): yes | RTV Direction Opposite dE? (EV protein Q9Z1Z0, General vesicular transport factor p115): yes | Abs Z Score Sum (Geno + RTV) (EV protein Q9Z2X1 Heterogeneous nuclear ribonucleoprotein E): 12.02 | RTV Direction Opposite dE? (EV protein Q78ZA7, Nucelosome assembly protein 1-like 4): yes | Abs Z Score Sum (Geno + RTV) (EV protein Q99KJ8 Dynactin subunit 2): 13.94 | Abs Z Score Sum (Geno + RTV) (EV protein Q922B2 Aspartate--tRNA ligase): 12.17 | Abs Z Score Sum (Geno + RTV) (EV protein Q01405 Protein transport protein .. 23A): 13.20 | Abs Z Score Sum (Geno + RTV) (EV protein Q35737 Heterogeneous nuclear ribonucleoprotein H): 8.31 | Abs Z Score Sum (Geno + RTV) (EV protein Q55023 Inositol monophosphatase 1): 14.51 | RTV Direction Opposite dE? (EV protein Q60751, Insulin-like growth factor 1 receptor): yes | Abs Z Score Sum (Geno + RTV) (EV protein Q60972 Histone-binding protein RBBP4): 18.10 | RTV Direction Opposite dE? (EV protein Q89051, Integral membrane protein 2B): yes | Abs Z Score Sum (Geno + RTV) (EV protein Qars (Q8BML9)): 13.17 | RTV Direction Opposite dE? (EV protein Qars (Q8BML9)): yes | Abs Z Score Sum (Geno + RTV) (EV protein Rab6a (P35279)): 6.80 | RTV Direction Opposite dE? (EV protein Rab6a (P35279)): yes | RTV Direction Opposite dE? (EV protein Rbbp4 (Q60972)): yes | Abs Z Score Sum (Geno + RTV) (EV protein Rpl22 (P67984)): 7.66 | RTV Direction Opposite dE? (EV protein Rpl22 (P67984)): yes | Abs Z Score Sum (Geno + RTV) (EV protein S100a11 (P50543)): 8.18 | RTV Direction Opposite dE? (EV protein S100a11 (P50543)): yes | Abs Z Score Sum (Geno + RTV) (EV protein Scarb2 (Q35114)): 3.91 | RTV Direction Opposite dE? (EV protein Scarb2 (Q35114)): yes | RTV Direction Opposite dE? (EV protein Sec23a (Q01405)): yes | Abs Z Score Sum (Geno + RTV) (EV protein Sec31a (Q3..)): 8.41 | Abs Z Score Sum (Geno + RTV) (EV protein Shrnt2 Q9CZN7): 11.93 | Abs Z Score Sum (Geno + RTV) (EV protein Slc44a1 Q6X893): 3.67 | Abs Z Score Sum (Geno + RTV) (EV protein Spp1 (P10923)): 11.35

From patent US20230332232A1, “COMPOSITIONS AND METHODS FOR DIAGNOSING AND TREATING A DYSTONIA” (Duke University, priority 2020, published 2023)
